Results: article PMC5515969, “Effects of 31 FDA approved small-molecule kinase inhibitors on isolated rat liver mitochondria” (Archives of Toxicology, 2016)

Assays:
RCC III = RCC III activity in submitochondrial particles; format: biochemical, rat; design: key to RCC III at 100XCmax: activity relative to DMSO-treated controls (control set as 1 = 100%); details: 100XCmax
In short: (§1)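 Absorbance kinetics: A340 (RCC I, V) and A600 (RCC II) read each minute over 6 min, A550 (RCC III, IV) every 10 s over 2 min; RCC I taken as […]. Particles (1 mg/ml) pretreated 15 min with compound; DMSO-treated activity = 1.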

[1] = test system: isolated rat liver mitochondria; assay: Mitochondrial ROS production (CM-H2DCFDA); details: DMSO treated samples set as 1
RCC I = RCC I activity in submitochondrial particles; format: biochemical, rat; design: key to RCC I at 10XCmax / RCC I at 100XCmax / RCC I at 50XCmax / RCC I at 30XCmax / RCC I at 20XCmax: activity relative to DMSO-treated controls (control set as 1 = 100%); details: 10XCmax; DMSO treated samples set as 1
In short: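 Kinase inhibitors were preincubated 15 min with submitochondrial particles (1 mg/ml) before complex activities were measured. RCC I was the rotenone-sensitive portion (activity without minus with rotenone). RCC I/V was read at 340 nm and RCC II at 600 nm every 1 min for 6 min. RCC III and IV were read at 550 nm every 10 s for 2 min. Activities are normalized to DMSO controls set as 1.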

[2] = test system: isolated rat liver mitochondria; assay: Mitochondrial swelling (absorbance at 535 nm); format: biochemical; details: difference in signal between KI and DMSO treated samples at the end of experiments; as to Swelling 5XCmax: key: 0 indicates that the drug had no effects (negative)
RCC IV = RCC IV activity in submitochondrial particles; format: biochemical, rat; design: key to RCC IV at 50XCmax / RCC IV at 100XCmax: activity relative to DMSO-treated controls (control set as 1 = 100%); details: 50XCmax; DMSO treated samples set as 1; in %
In short: as §1

[3] = test system: isolated rat liver mitochondria; assay: Mitochondrial toxicity, any endpoint, intact mitochondria and submitochondrial particles; format: biochemical; details: any endpoint
Method: Rats were anesthetized by an intraperitoneal injection of Nembutal and the liver perfused with PBS to remove the blood. The liver was then cut into small pieces and homogenized using a Dounce type homogenizer in the ice-cold isolation buffer (IB) containing 200 mM sucrose, 10 mM Tris-MOPS, 1 mM EGTA (pH 7.4). The sample was then centrifuged at 600g for 10 min. The supernatant was further centrifuged at 7500g for 10 min, and the pellets was washed once with the IB and centrifuged again at 7500g for 10 min to collect mitochondria. […] Before drug treatment, the protein concentration was adjusted to 1 mg/ml using appropriate buffer. […] Briefly, mitochondrial and cytosolic fractions from four different preparations using four rats were diluted using the Laemmli protein loading buffer and subject to SDS-PAGE with 4–20% gradient gels. The proteins were blotted to PVDF membranes and detected using antibodies against GAPDH, ATP5A, UQCRC2, SDHB, and NDUFB8.
The aliquoted stock solutions were kept for less than one month and each tube was used only once. The KIs were added to the mitochondria at 1:1000 dilutions. […] The Cmax data were from clinical trials which used FDA recommend dosages, route of administration, and duration. […] The final concentration of DMSO for drug treatment was always 0.1%, and control treatments were 0.1% DMSO.

[4] = test system: isolated rat liver mitochondria; details: positive control alamethicin treated samples
[5] = test system: isolated rat liver mitochondria; assay: Mitochondrial inner membrane potential (MMP), Rhodamine 123; format: biochemical; details: difference in signal between KI and DMSO treated samples at the end of experiments
Excerpt: Fig. 3 KI effects on mitochondrial inner membrane potential (MMP). […] In a, c, data are means and standard derivations from three separate experiments. *p < 0.05 as compared to DMSO-treated samples at the end of experiments. In b, data are means of two independent experiments

RCC V = RCC V activity in submitochondrial particles; format: biochemical, rat; details: DMSO treated samples set as 1; as to RCC V at 5XCmax: key: 0 indicates that the drug had no effects (negative)
In short: as §1

RCC II = biological target: T1, RCC II (Rattus norvegicus, UniProt P21913+Q641Z9+Q6PCT8+Q920L2); assay: RCC II activity in submitochondrial particles; format: biochemical; design: key: activity relative to DMSO-treated controls (control set as 1 = 100%); details: DMSO treated samples set as 1
T1 construct: Submitochondrial particles were prepared by subjecting the intact mitochondria to three successive freeze–thaw cycles; from tissue; host or cells: rat liver mitochondria, used as submitochondrial particles
T1 sequence (Q920L2 35-656): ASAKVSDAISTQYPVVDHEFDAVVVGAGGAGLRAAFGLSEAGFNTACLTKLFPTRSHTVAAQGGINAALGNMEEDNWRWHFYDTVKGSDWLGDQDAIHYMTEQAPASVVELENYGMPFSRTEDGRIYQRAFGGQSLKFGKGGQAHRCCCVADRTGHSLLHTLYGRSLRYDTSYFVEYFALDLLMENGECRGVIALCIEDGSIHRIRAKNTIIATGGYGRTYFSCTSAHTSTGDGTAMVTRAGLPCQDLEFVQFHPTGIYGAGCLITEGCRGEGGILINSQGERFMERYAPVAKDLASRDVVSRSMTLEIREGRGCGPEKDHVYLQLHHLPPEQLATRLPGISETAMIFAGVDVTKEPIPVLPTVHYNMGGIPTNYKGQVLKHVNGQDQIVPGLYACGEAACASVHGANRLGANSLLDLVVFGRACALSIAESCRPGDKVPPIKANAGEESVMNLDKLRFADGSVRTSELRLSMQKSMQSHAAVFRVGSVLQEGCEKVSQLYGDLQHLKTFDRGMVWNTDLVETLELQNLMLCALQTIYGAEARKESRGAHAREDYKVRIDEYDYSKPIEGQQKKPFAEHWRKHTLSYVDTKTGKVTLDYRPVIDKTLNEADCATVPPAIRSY
T1 sequence (P21913 31-282): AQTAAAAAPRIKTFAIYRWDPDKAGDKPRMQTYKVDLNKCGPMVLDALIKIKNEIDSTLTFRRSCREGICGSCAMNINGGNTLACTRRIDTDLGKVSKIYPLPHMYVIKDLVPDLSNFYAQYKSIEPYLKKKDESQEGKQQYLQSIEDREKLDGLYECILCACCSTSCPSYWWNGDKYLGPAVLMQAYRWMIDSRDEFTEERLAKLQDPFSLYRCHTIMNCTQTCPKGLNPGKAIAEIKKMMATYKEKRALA
T1 sequence (Q641Z9 1-169): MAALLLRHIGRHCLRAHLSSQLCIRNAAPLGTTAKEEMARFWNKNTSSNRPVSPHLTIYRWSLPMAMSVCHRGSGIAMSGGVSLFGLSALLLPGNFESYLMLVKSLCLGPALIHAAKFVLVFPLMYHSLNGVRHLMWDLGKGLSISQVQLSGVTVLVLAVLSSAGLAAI
T1 sequence (Q6PCT8 57-159): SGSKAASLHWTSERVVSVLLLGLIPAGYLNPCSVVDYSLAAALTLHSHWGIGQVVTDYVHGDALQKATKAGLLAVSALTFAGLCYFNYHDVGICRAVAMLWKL
In short: as §1

[6] = test system: isolated rat liver mitochondria; assay: Mitochondrial oxygen consumption (glutamate/malate or succinate driven, state 4 and state 3); format: biochemical; details: DMSO treated samples set as 1; as to State 3 respiration driven by succinate at 10XCmax: key: 0 indicates that the drug had no effects (negative); as to State 3 respiration driven by succinate at 1XCmax: key: 0 indicates that the drug had no effects (negative)
In short: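 Oxygen uptake on glutamate/malate or on succinate defined state 4; ADP added 3 min later gave state 3. Mitochondria isolated from rat liver by differential centrifugation, adjusted to 1 mg/ml and pretreated 5 min with inhibitor (0.1% DMSO final). Values relative to DMSO control, set to 1.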

Structure (SMILES): C=CC(=O)N1CCC[C@@H](n2nc(-c3ccc(Oc4ccccc4)cc3)c3c(N)ncnc32)C1 [Ibrutinib]
- RCC III at 100XCmax (RCC III): 0
- ROS measured by CM-H2DCFDA at 1XCmax ([1]; 1XCmax): 0
- ROS measured by CM-H2DCFDA at 2.5XCmax ([1]; 2.5XCmax): 0
- ROS measured by CM-H2DCFDA at 5XCmax ([1]; 5XCmax): 0
- ROS measured by CM-H2DCFDA at 10XCmax ([1]; 10XCmax): 0
- ROS measured by CM-H2DCFDA at 20XCmax ([1]; 20XCmax): 0
- ROS measured by CM-H2DCFDA at 30XCmax ([1]; 30XCmax): 0
- ROS measured by CM-H2DCFDA at 50XCmax ([1]; 50XCmax): 0
- ROS measured by CM-H2DCFDA at 100XCmax ([1]; 100XCmax): 0
- RCC I at 10XCmax (RCC I): 0
- Swelling 1XCmax ([2]; 1XCmax): 0
- Swelling 2.5XCmax ([2]; 2.5XCmax): 0
- Swelling 5XCmax ([2]; 5XCmax): 0
- Swelling 10XCmax ([2]; 10XCmax): 0
- Swelling 20XCmax ([2]; 20XCmax): 0
- Swelling 30XCmax ([2]; 30XCmax): 0
- Swelling 50XCmax ([2]; 50XCmax): 0
- Swelling 100XCmax ([2]; 100XCmax): 0
- RCC IV at 50XCmax (RCC IV): 0
- lowest concentration causing significant mitochondrial toxicity [3]: 50 fold Cmax
- Cytochrome c release 1XCmax ([4]; 1XCmax): 0
- Cytochrome c release 2.5XCmax ([4]; 2.5XCmax): 0
- Cytochrome c release 5XCmax ([4]; 5XCmax): 0
- Cytochrome c release 10XCmax ([4]; 10XCmax): 0
- Cytochrome c release 20XCmax ([4]; 20XCmax): 0
- Cytochrome c release 30XCmax ([4]; 30XCmax): 0
- Cytochrome c release 50XCmax ([4]; 50XCmax): 0
- Cytochrome c release 100XCmax ([4]; 100XCmax): 0
- MMP measured by Rhodamine 123 at 1XCmax ([5]; 1XCmax): 0
- MMP measured by Rhodamine 123 at 2.5XCmax ([5]; 2.5XCmax): 0
- MMP measured by Rhodamine 123 at 5XCmax ([5]; 5XCmax): 0
- MMP measured by Rhodamine 123 at 10XCmax ([5]; 10XCmax): 0
- MMP measured by Rhodamine 123 at 20XCmax ([5]; 20XCmax): 0
- MMP measured by Rhodamine 123 at 30XCmax ([5]; 30XCmax): 0
- MMP measured by Rhodamine 123 at 50XCmax ([5]; 50XCmax): 0
- MMP measured by Rhodamine 123 at 100XCmax ([5]; 100XCmax): 0
- RCC V at 5XCmax (RCC V; 5XCmax): 0
- RCC V at 50XCmax (RCC V; 50XCmax): 0
- RCC II at 1.0XCmax (RCC II; 1.0XCmax): 0
- RCC II at 2.5XCmax (RCC II; 2.5XCmax): 0
- RCC II at 5XCmax (RCC II; 5XCmax): 0
- RCC II at 10XCmax (RCC II; 10XCmax): 0
- RCC II at 20XCmax (RCC II; 20XCmax): 0
- RCC II at 30XCmax (RCC II; 30XCmax): 0
- RCC II at 50XCmax (RCC II; 50XCmax): 0
- RCC II at 100XCmax (RCC II; 100XCmax): 0
- State 3 respiration driven by succinate at 1XCmax ([6]; 1XCmax): 0
- State 4 respiration driven by succinate at 1XCmax ([6]; 1XCmax): 0
- State 3 respiration driven by succinate at 2.5XCmax ([6]; 2.5XCmax): 0
- State 4 respiration driven by succinate at 2.5XCmax ([6]; 2.5XCmax): 0
- State 3 respiration driven by succinate at 5XCmax ([6]; 5XCmax): 0
- State 4 respiration driven by succinate at 5XCmax ([6]; 5XCmax): 0
- State 3 respiration driven by succinate at 10XCmax ([6]; 10XCmax): 0
- State 4 respiration driven by succinate at 10XCmax ([6]; 10XCmax): 0
- State 3 respiration driven by succinate at 20XCmax ([6]; 20XCmax): 0
- State 4 respiration driven by succinate at 20XCmax ([6]; 20XCmax): 0
- State 3 respiration driven by succinate at 30XCmax ([6]; 30XCmax): 0
- State 4 respiration driven by succinate at 30XCmax ([6]; 30XCmax): 0
- State 3 respiration driven by succinate at 50XCmax ([6]; 50XCmax): 0
- State 4 respiration driven by succinate at 50XCmax ([6]; 50XCmax): 0
- State 3 respiration driven by succinate at 100XCmax ([6]; 100XCmax): 0
- State 4 respiration driven by succinate at 100XCmax ([6]; 100XCmax): 0
